The values that follow come from the supplement of paper PMC10307832.

Assay in all cases: relative viability (nuclei count vs DMSO), 5 days (fraction); higher = more cells survive
Compound in assay [1]: CNC(=O)c1cc(Oc2ccc(NC(=O)Nc3ccc(Cl)c(C(F)(F)F)c3)cc2)ccn1 [Sorafenib] + Cc1nc(Nc2ncc(C(=O)Nc3c(C)cccc3Cl)s2)cc(N2CCN(CCO)CC2)n1 [Dasatinib] (partner 0.075 µM)
Put shortly:
(§1)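 The day after seeding in 1536-well plates, lung cancer cell lines were treated by pin tool with a single drug, or with a fixed anchor-drug dose together with five library-drug doses (not always all listed) in √10 steps. After 5 days, a combined fix-and-stain solution (final 0.05% Triton X-100, 1% formaldehyde, 1 ug/ml Hoechst) was added. Nuclei counted on 4× images gave relative viability as treated counts over vehicle counts, reported as the median of duplicate plates.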

Compound in assay [2]: CNC(=O)c1cc(Oc2ccc(NC(=O)Nc3ccc(Cl)c(C(F)(F)F)c3)cc2)ccn1 [Sorafenib] + O=C(c1cc(Cc2n[nH]c(=O)c3ccccc23)ccc1F)N1CCN(C(=O)C2CC2)CC1 [Olaparib] (partner 8 µM)
The method, boiled down:
as §1

Compound in assay [3]: CNC(=O)c1cc(Oc2ccc(NC(=O)Nc3ccc(Cl)c(C(F)(F)F)c3)cc2)ccn1 [Sorafenib] + C[C@@H](Oc1cc(-c2cnn(C3CCNCC3)c2)cnc1N)c1c(Cl)ccc(F)c1Cl [Crizotinib] (partner 1 µM)
The method, boiled down: as §1

Compound in assay [4]: CNC(=O)c1cc(Oc2ccc(NC(=O)Nc3ccc(Cl)c(C(F)(F)F)c3)cc2)ccn1 [Sorafenib] + NC(=O)Nc1cc(-c2cccc(F)c2)sc1C(=O)N[C@H]1CCCNC1 [AZD7762] (partner 0.2 µM)
Put shortly:
as §1

Compound in assay [5]: CNC(=O)c1cc(Oc2ccc(NC(=O)Nc3ccc(Cl)c(C(F)(F)F)c3)cc2)ccn1 [Sorafenib] + Cc1nc(NC(=O)N2CCC[C@H]2C(N)=O)sc1-c1ccnc(C(C)(C)C(F)(F)F)c1 [Alpelisib] (partner 2 µM)
The method, boiled down: as §1

For NCI-H1650, the relative viability is 0.366 in assay [1] (first compound 0.08 µM); 0.33 in assay [1] (first compound 0.253 µM); 0.296 in assay [1] (first compound 2.53 µM); 0.172 in assay [1] (first compound 8 µM); 0.684 in assay [2] (first compound 0.08 µM); 0.741 in assay [2] (first compound 0.253 µM). Moreover, the relative viability is 0.707 in assay [2] (first compound 2.53 µM); 0.643 in assay [2] (first compound 8 µM); 0.961 in assay [3] (first compound 0.08 µM); 1.1 in assay [3] (first compound 0.253 µM); 1.01 in assay [3] (first compound 2.53 µM).
For NCI-H1651, the relative viability in assay [4] (first compound 0.08 µM) came out at 0.537; in assay [4] (first compound 0.253 µM), 0.362; in assay [4] (first compound 2.53 µM) it was 0.399; in assay [4] (first compound 8 µM) it was 0.322; in assay [1] (first compound 0.08 µM), 0.456; in assay [1] (first compound 0.253 µM), 0.35. Further, the relative viability in assay [1] (first compound 2.53 µM) came out at 0.612; in assay [1] (first compound 8 µM), 0.13; in assay [5] (first compound 0.08 µM), 0.979; in assay [5] (first compound 0.253 µM) it was 0.981; in assay [5] (first compound 2.53 µM), 0.996; in assay [5] (first compound 8 µM), 0.547. For the same cell line, the relative viability in assay [2] (first compound 0.08 µM) is 0.18; in assay [2] (first compound 0.253 µM) it was 0.174; in assay [2] (first compound 2.53 µM), 0.187; in assay [2] (first compound 8 µM) it was 0.178; in assay [3] (first compound 0.08 µM), 0.863; in assay [3] (first compound 0.253 µM), 0.866. For the same cell line, the relative viability worked out at 0.845 in assay [3] (first compound 2.53 µM) and 0.877 in assay [3] (first compound 8 µM).
Turning to NCI-H1793, the relative viability stood at 0.926 in assay [4] (first compound 0.08 µM); 0.306 in assay [4] (first compound 0.253 µM); 0.385 in assay [4] (first compound 2.53 µM); 0.146 in assay [4] (first compound 8 µM); 0.411 in assay [1] (first compound 0.08 µM); 0.356 in assay [1] (first compound 0.253 µM). Further, the relative viability in assay [1] (first compound 2.53 µM) came to 0.379; in assay [1] (first compound 8 µM) it was 0.406; in assay [5] (first compound 0.253 µM) it was 0.727; in assay [5] (first compound 2.53 µM) it was 1.01; in assay [5] (first compound 8 µM) it was 0.511; in assay [2] (first compound 0.08 µM), 1.05. The results for the relative viability in assay [2] (first compound 0.253 µM), in assay [2] (first compound 2.53 µM) and in assay [2] (first compound 8 µM) were 0.836, 0.84 and 0.661, respectively.
With PC-14, the relative viability in assay [4] (first compound 0.08 µM) was 0.365; in assay [4] (first compound 0.253 µM), 0.256; in assay [4] (first compound 2.53 µM), 0.444; in assay [4] (first compound 8 µM) it was 0.303; in assay [1] (first compound 0.08 µM), 0.302; in assay [1] (first compound 0.253 µM), 0.256. For the same cell line, the relative viability in assay [1] (first compound 2.53 µM) worked out at 0.276; in assay [1] (first compound 8 µM), 0.185; in assay [5] (first compound 0.08 µM), 1; in assay [5] (first compound 0.253 µM), 0.848; in assay [5] (first compound 2.53 µM) it was 0.854; in assay [5] (first compound 8 µM), 0.753. Further, the relative viability in assay [2] (first compound 0.08 µM) came to 0.323; in assay [2] (first compound 0.253 µM), 0.315; in assay [2] (first compound 2.53 µM) it was 0.238; in assay [2] (first compound 8 µM), 0.105; in assay [3] (first compound 0.08 µM), 0.935; in assay [3] (first compound 0.253 µM), 1. The relative viability in assay [3] (first compound 2.53 µM) was found to be 0.967; in assay [3] (first compound 8 µM), 0.533.
With COR-L23, the relative viability is 0.55 in assay [1] (first compound 0.08 µM); 0.495 in assay [1] (first compound 0.253 µM); 0.514 in assay [1] (first compound 2.53 µM); 0.235 in assay [1] (first compound 8 µM); 0.83 in assay [5] (first compound 0.08 µM); 0.758 in assay [5] (first compound 0.253 µM). Besides, the relative viability in assay [5] (first compound 2.53 µM) amounted to 0.79; in assay [5] (first compound 8 µM) it was 0.637; in assay [2] (first compound 0.08 µM), 0.336; in assay [2] (first compound 0.253 µM) it was 0.372; in assay [2] (first compound 2.53 µM), 0.346; in assay [2] (first compound 8 µM), 0.233. In addition, the relative viability turned out to be 0.902 in assay [3] (first compound 0.08 µM), 0.609 in assay [3] (first compound 0.253 µM), 0.657 in assay [3] (first compound 2.53 µM) and 0.551 in assay [3] (first compound 8 µM).
With NCI-H2342, the relative viability in assay [4] (first compound 0.08 µM) turned out to be 0.589; in assay [4] (first compound 0.253 µM), 0.409; in assay [4] (first compound 2.53 µM), 0.554; in assay [4] (first compound 8 µM) it was 0.353; in assay [1] (first compound 0.08 µM) it was 0.32; in assay [1] (first compound 0.253 µM), 0.27. Besides, the relative viability stood at 0.29 in assay [1] (first compound 2.53 µM); 0.28 in assay [1] (first compound 8 µM); 0.433 in assay [2] (first compound 0.08 µM); 0.487 in assay [2] (first compound 0.253 µM); 0.351 in assay [2] (first compound 2.53 µM); 0.388 in assay [2] (first compound 8 µM).
Consider NCI-H650, for which the relative viability in assay [4] (first compound 0.08 µM) was 1.31; in assay [4] (first compound 0.253 µM), 0.691; in assay [4] (first compound 2.53 µM), 0.96; in assay [4] (first compound 8 µM), 0.936; in assay [1] (first compound 0.08 µM), 0.508; in assay [1] (first compound 0.253 µM) it was 0.367. Further, the relative viability came out at 0.462 in assay [1] (first compound 2.53 µM); 0.425 in assay [1] (first compound 8 µM); 1.31 in assay [5] (first compound 0.08 µM); 0.96 in assay [5] (first compound 0.253 µM); 0.952 in assay [5] (first compound 2.53 µM); 0.963 in assay [5] (first compound 8 µM). The relative viability in assay [2] (first compound 0.08 µM) was found to be 0.377; in assay [2] (first compound 0.253 µM), 0.312; in assay [2] (first compound 2.53 µM) it was 0.295; in assay [2] (first compound 8 µM), 0.227; in assay [3] (first compound 0.08 µM), 0.777; in assay [3] (first compound 0.253 µM), 0.563. In addition, the relative viability in assay [3] (first compound 2.53 µM) came to 0.735; in assay [3] (first compound 8 µM), 0.595.
In the case of NCI-H2023, the relative viability is 0.681 in assay [1] (first compound 0.08 µM); 0.485 in assay [1] (first compound 0.253 µM); 0.601 in assay [1] (first compound 2.53 µM); 0.275 in assay [1] (first compound 8 µM); 0.659 in assay [5] (first compound 0.08 µM); 0.603 in assay [5] (first compound 0.253 µM). In addition, the relative viability was 0.613 in assay [5] (first compound 2.53 µM); 0.438 in assay [5] (first compound 8 µM); 0.45 in assay [2] (first compound 0.08 µM); 0.477 in assay [2] (first compound 0.253 µM); 0.465 in assay [2] (first compound 2.53 µM); 0.115 in assay [2] (first compound 8 µM). Also, the relative viability in assay [3] (first compound 0.08 µM) stood at 0.66; in assay [3] (first compound 2.53 µM) it was 0.713; in assay [3] (first compound 8 µM), 0.357.
